Experimental data from PubChem BioAssay (NCI).
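Assay format: 96-well plates, 48-hour exposure. At the TGI there is no net growth.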

How the values were obtained:
Test in all cases: growth of human tumour cells (NCI), 48 h
SF-268 CNS = tested on: SF-268 CNS
HCC-2998 colon = tested on: HCC-2998 colon
OVCAR-3 ovarian = tested on: OVCAR-3 ovarian
MOLT-4 leukemia = tested on: MOLT-4 leukemia
A498 renal = tested on: A498 renal
DU-145 prostate = tested on: DU-145 prostate
OVCAR-4 ovarian = tested on: OVCAR-4 ovarian
HOP-92 NSCLC = tested on: HOP-92 NSCLC
IGROV1 ovarian = tested on: IGROV1 ovarian
PC-3 prostate = tested on: PC-3 prostate

Measured: TGI

Nc1nc2c(c(-c3cccc(Cl)c3)n1)COC/C2=C\c1cccc(Cl)c1
> 100 µM: all assays above
